Assay results as given in US12208108B2, “Drug targets of delayed aging and human brain diseases” (Texas Tech University System, priority 2016, dated 2025).

Tests used:
Assay type in all cases: in vivo
BACHD mice [1] = test: Behavioral analysis in BACHD mice; conditions: BACHD mice treated for six months vs untreated BACHD mice
Protocol: Huntington's disease. To determine whether Mdivi1 reduces excessive mitochondrial fragmentation and enhances mitochondrial function and synaptic activity in bacterial artificial chromosome transgenic Huntington's disease (BACHD) mice.
(§1) The inventors treated BACHD mice and non-transgenic wild-type mice with Mdivi-1 for six months. Behavioral analysis were performed using rotarod (motor coordination), open field (locomotor activity), Y-maze (working memory) and tail suspension (neurological phenotype) in both treated and untreated BACHD and non-transgenic wild-type (WT) mice. […] The inventors also completed studies on the cell and molecular biology aspects of mitochondria and mutant huntingtin experiments. And also completed experiments on mitochondrial morphology (number and length) dendritic spine density in Mdivi-1-treated and untreated BACHD and non-transgenic WT mice.

BACHD mice [2] = test: Gene/protein levels, dendritic spines and mitochondrial morphology in BACHD mice
Protocol: as §1
Mdivi-1-treated BACHD mice had increased dendritic spines in striatal, cortical and hippocampal tissues of Mdivi-1-treated BACHD mice relative Mdivi-1-untreated BACHD mice. Mdivi-1-treated BACHD mice had increased mitochondrial length and reduced the size of mitochondrial size.

wild-type mice = test: Morris Water Maze, wild-type mice; conditions: 12-month-old WT mice, 3 weeks, vs control WT mice
Excerpt: (§2) Impact of MitoQ in Wild-type and Transgenic Tau mice: The inventors investigated the protective effects of MitoQ and daily exercise in 12-month-old transgenic Tau (P301L strain) and age-matched wild-type mice. The purpose of this study was to assess the lifestyle factors (antioxidant-enriched diet) and physical exercise (Treadmill) effects on cognitive behavior and AD pathologies (Abeta, P-tau, mitochondrial and synaptic) in AD mice.
(§3) First, the inventors fed wild-type, Tau and APP/PS1 mice with (500 uM of MitoQ in drinking water) and physical exercise (30 minutes on Treadmill) for 3 weeks. The inventors used 12-month-old animals (n=7) per group for all treatments (WT-MitoQ, WT-Treadmill, WT-MitoQ+Treadmill), Tau (Tau-MitoQ, Tau-Treadmill,Tau-MitoQ+Treadmill) and APP/PS1 (APP/PS1-MitoQ, APP/PS1-Treadmill, APP/PS1-MitoQ+Treadmill). Age-matched control mice were used for all genotypes in these studies. After 3-weeks treatment, the cognitive behavior using Morris Water Maze test was assessed.
(§4) The inventors conducted 11 trials (4 training and 7 actual) for latency to find the platform for all groups of mice.

[3] = system: transgenic Tau (P301L strain) mice; test: Morris Water Maze, transgenic Tau mice; conditions: 12-month-old Tau mice, 3 weeks
Excerpt: as §2, §3, §4

[4] = treated vs untreated BACHD mice

| SMILES | behavioral phenotype (rotarod, open field, Y-maze, tail suspension) (BACHD mice [1]) | dendritic spines (BACHD mice [2]; striatal, cortical and hippocampal tissues, treated vs untreated BACHD mice) | mitochondrial length (BACHD mice [2]; treated BACHD mice) | size of mitochondrial size (BACHD mice [2]; treated BACHD mice) | Mitochondrial biogenesis (PGC1a, Nrf1, Nrf2 and TFAM) genes (BACHD mice [2]; [4]) | autophagy (LC3A, LC3B, ATG5, Beclin 1) genes (BACHD mice [2]; [4]) | mRNA and protein levels of fission genes (Drp1 and Fis1) (BACHD mice [2]; [4]) | mitochondrial fusion genes (Mfn1, Mfn2, and Opa1) (BACHD mice [2]; [4]) | mitophagy (PINK1, TERT, BCL2, BNIP3L) genes (BACHD mice [2]; [4]) | synaptic (synaptophysin, PSD95, DARPP32) genes (BACHD mice [2]; [4]) | latency to find the platform (wild-type mice; 500 uM in drinking water) | latency to find the platform (wild-type mice; MitoQ+Treadmill (30 minutes)) | latency to reach platform ([3]; 500 uM in drinking water, vs MitoQ untreated Tau mice) | latency to reach platform ([3]; MitoQ+Treadmill, vs MitoQ+Treadmill untreated Tau mice) |
| --- | --- | --- | --- | --- | --- | --- | --- | --- | --- | --- | --- | --- | --- | --- |
| COc1cc(-n2c(S)nc3ccccc3c2=O)c(Cl)cc1Cl [Mdivi-1, 3-(2,4-Dichloro-5-methoxyphenyl)-2,3-dihydro-2-thioxo-4(1H)-quinazolinone, 3-(2,4-Dichloro-5-methoxyphenyl)-2-sulfanyl-4(3H)-quinazolinone] | significantly improved | increased | increased | reduced | increased | increased | significantly reduced | significantly increased | increased | increased |  |  |  |  |
| COC1=C(OC)C(=O)C(CCCCCCCCCC[P+](c2ccccc2)(c2ccccc2)c2ccccc2)=C(C)C1=O [MitoQ, Phosphonium, [10-(4,5-dimethoxy-2-methyl-3,6-dioxo-1,4-cyclohexadien-1-yl)decyl]triphenyl-, methanesulfonate] |  |  |  |  |  |  |  |  |  |  | did not show any significant difference | significantly faster | much quicker | significantly faster |
